Where no end group is shown, it is not given here.
Legend:
wild-type mice = assay: Open-field activity chamber behavior; assay type: in vivo, mouse; conditions: 3 mg/Kg/day
From the text: (a) Quantification of mitochondrial Drp1 content relative to ALDH2 (a mitochondrial matrix enzyme) in the mitochondrial fraction isolated from total brain lysate of wild-type mice (Western blot shown in Fig. S3B) (n = 4 mice). (b) ATP content in brain tissue of wild-type mice (n = 4 mice, 2 replicates). (c) Representative transmission electron microscopy images of the striatum from wild-type mice. […] The first principal component represents 42% of the variation. (f) Local linear embedding dimensionality reduction and visualization of all behaviors collected weekly from TAT- (black) or P259- (purple) treated WT and TAT- (white) treated R6/2 mice over the course of 8 weeks. […] All behavior and survival tests were conducted by an experienced observer who was blinded to the treatment groups. Data are mean ± s.e.
Five-week old R6/2 HD mice and their wild-type littermates (a total of 60 mice) were implanted subcutaneously with a 28-d Alzet osmotic pump with either P259-TAT or TAT control peptide (15 mice per group) to be delivered continuously at a rate of 3 mg/Kg/day, as previously described. All mice were implanted twice for a total of an 8-week treatment. 20 of the WT mice were implanted 3 times for a total of a 12-week treatment at 3 mg/Kg/day. All the experiments were in accordance with protocols approved by the Institutional Animal Care and Use Committee of Stanford University and were performed based on the National Institutes of Health Guide for the Care and Use of Laboratory Animals. All methods were carried out in accordance with the relevant guidelines and regulations. […]
Survival and behavioral mice studies […]
All behavior and […]
survival tests were conducted by an experienced ob server who was blinded to the treatment groups.
Behavioral tests were administered weekly in an open-field activity arena (Med Associate s Inc, St.
Albans, VT. Model ENV-515) equipped with three planes of infrared detectors within a sound-proof chamber (Med Associates Inc., St. Albans, VT. MED-017-027), as described previously.12 Each mouse was placed in a corner of the chamber and was tracked for a period of 15 minutes.
The following activities were recorded: digging duration, grooming duration, climbing duration, rearing duration, seizure frequency, average velocity, active behaviors, total distance moved, jump counts/time, ambulatory counts/distance/time, latency towards center, stereotypic time/counts, resting time, vertical counts/time, and zone entries (center/periphery).
Dimensionality reduction of mouse behavior data
The collection of weekly behavior parameters for wild-type mice treated with P259 or the TAT control was assembled into a vector with a total of 180 behavior parameters per mouse. The top 20% of parameters contributing to treatment classification were filtered by using a combination of the ANOVA F- and the mutual information scores for each behavior. The filtered dataset was normalized and principal component analysis was performed using the Python scikit-learn package. An eigenvector was extracted to determine the contribution of each behavior to the first […]
treated wild-type mice and control-treated R6/2 mice during the eight-week treatment were assembled into a single vector for each mouse. The dataset was normalized and local linear embedding from the Python scikit-learn package was used to reduce the dimensionality of and visualize the behavior parameters.

wild-type MEFs [1] = assay: Mitochondrial membrane potential (TMRM), WT MEFs; assay type: cell-based, mouse; conditions: 20 µM P259 overnight, vs no peptide; 3 independent experiments, three technical replicates; ** p <0.01
Procedure: (§1) Data are of 3 independent experiments with the whiskers calculated by the Turkey method. e. […]
(§2) determined by an unpaired, two -tailed t test). g. […]
control (no peptide treatment). Data are mean ± s.e. from 3 independent experiments. […]
(§3) and without phenol red. […] After incubation
(§4) HEPES, and without phenol red. […]
(§5) epifluorescence microscope with a 10X objective (Keyence). The Cy5 filter (Keyence) was used to autofocus on the mitochondria plane. […]
Mitochondrial membrane potential determination
After treatment, cells were washed with
Cells were incubated in a 37
°C incubator for 30 minutes. […]

[2] = tested on: Drp1 with Fis1/Mid49/Mid51; assay: Co-immunoprecipitation of recombinant Drp1 with the other adaptors; assay type: binding; conditions: 1 µM P259, 2 hours at 4 °C, 200 ng Drp1, 200 ng adaptor, RIPA buffer; representative blot of two independent experiments
wild-type MEFs [3] = assay: Mitochondrial ROS (MitoSox), WT MEFs; assay type: cell-based, mouse; conditions: 4 µM P259 daily for three days, vs no peptide; 3 independent experiments, three technical replicates; *** p <0.001
From the text: as §1
production in an Mff -dependent manner. Mitochondrial reactive oxygen species production […]
treatment in each cell line. […]
as §2
control (no peptide treatment). Data are mean ± s.e. from 3 independent experiments.
(§6) Mitochondrial reactive oxygen species determination […]
and 1% penicillin-streptomycin solution (Corning, NY, USA). […]
as §3, §4, §5
(§7) calculated as the average MitoSox signal per cell. […]

SH-SY5Y cells = assay: Oxygen consumption rate, SH-SY5Y; assay type: cell-based, human; conditions: overnight treatment, XFe24 analyzer
primary cortical neurons = assay: Mitochondrial ROS (MitoSox Red), primary cortical neurons; assay type: cell-based, rat; conditions: overnight treatment; n = 3, with 3 replicates
Procedure: Bottom, quantification of the form factor (degree of branching) and aspect ratio (major/minor axis length). At least 10,000 mitochondrial fragments were analyzed for each condition. Mitochondrial reactive oxygen species production (MitoSox Red) (b) and membrane potential (TMRM) (c) after overnight treatment with indicated concentrations of peptide (n = 3, with 3 replicates). […] Overlay of live microscopy imaging at time 0 (green) and 150 (red) seconds. […] An estimation of the % mobile mitochondria from the Pearson coefficient of each set of images. Data are mean ± s.e.
Following treatment, cells were washed with treatment media.
The Cy5 filter was used to autofocus on the mitochondria plane. Nuclei were imaged with a DAPI filter and the mitoROS (MitoSox) or membrane potential (TMRM) image was acquired with a TRITC filter. […] MitoROS was calculated as the average MitoSox signal per cell. The mitochondrial membrane potential was calculated as the average TMRM signal in the mitochondrial mask.
as §6
and 1% penicillin-streptomycin solution (Corning, NY, USA). Primary cortical neurons were treated with increasing concentrations of peptides in NbActiv1 media. HD Patient- and adult- […]
as §3, §4, §7

[4] = 8-week treatment, WT mice, n = 10 mice

## YGRKKRRQRRRGSGIIQLPEIVVV-NH2 (C-terminus assumed) [P259]
wild-type mice; [4]
  active mouse behaviors: less active
  jumping and climbing: jumped and climbed less frequently
  total distance moved: travelled for a shorter distance
wild-type mice; 12 weeks, WT mice, vs TAT
  behavior profile, principal component analysis (top 20% of behaviors): successfully separated the behavior profile of P259- and TAT control-treated mice
wild-type mice; WT mice, tested weekly, 12 weeks, vs TAT-treated mice
  jump counts/time, periphery-to-center transition, movement counts, stereotypic time: performed worse than TAT-treated mice
wild-type mice; weekly over 8 weeks, P259-treated WT vs TAT-treated WT and TAT-treated R6/2 mice
  aggregate behavior score (local linear embedding): intermediate aggregate behavior score between WT- and R6/2 control-treated mice
wild-type MEFs [1]
  mitochondrial membrane potential, WT MEFs: decreases
[2]
  binding of other receptors (Fis1, Mid49, Mid51) to co-immunoprecipitated recombinant Drp1: without affecting the binding of any other receptor
wild-type MEFs [3]
  mitochondrial ROS production, WT MEFs: increases mitochondrial ROS
SH-SY5Y cells; 4 µM (Fig. 2f), n = 3, with at least 3 replicates
  electron flux (electron transport chain flux): dose-dependent decline
SH-SY5Y cells; indicated concentrations, 3 independent experiments
  basal oxygen consumption rate: dose-dependent decline
Primary cortical neurons
  mitochondrial ROS: increased mitochondrial ROS

— paper PMC6145916, “Interaction of mitochondrial fission factor with dynamin related protein 1 governs physiological mitochondrial function in vivo” (Scientific Reports, 2018)
